According to the supplement of paper PMC12463676, “Small-molecule dissolution of stress granules by redox modulation benefits ALS models” (Nature Chemical Biology, 2025):

Experiments:
potassium arsenate = compound: O=[As]([O-])(O)O.[K+] [potassium arsenate]; assay: thermal stability z-score vs DMSO; higher = more thermally stabilized by treatment; conditions: HeLa; arsenate concentration 1 mM
Method: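 Cellular thermal proteome profiling in HeLa cells treated with 1 mM arsenate for 1 h (DMSO pretreatment), heated to ten temperatures (37-66.3 °C). Soluble protein was quantified by TMT mass spectrometry relative to DMSO controls; the thermal stability score was transformed to a z-score; mean of n = 3 experiments.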

lipoamide = compound: NC(=O)CCCCC1CCSS1 [lipoamide]; assay: as above; conditions: HeLa, lipoamide concentration 100 µM
Method: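 Cellular thermal proteome profiling in HeLa cells. Cells were treated with 100 µM lipoamide for 1 h, with or without 1 mM arsenate for a further 1 h, then heated to ten temperatures (37-66.3 °C), and soluble protein was quantified by TMT mass spectrometry relative to 0.1% DMSO controls. The thermal stability score (sum of log2 fold changes minus the abundance score) was transformed to a z-score; mean of n = 3 experiments.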

[1] = arsenate co-treatment: 1 mM arsenate 1 h
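Also: each temperature applied for 3 min, abundance score taken as mean log2 fold change at the two lowest temperatures, z-score obtained by mean subtraction and division by SD.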

Chain of UniProt Q5T9S5 (Q5T9S5 whole entry): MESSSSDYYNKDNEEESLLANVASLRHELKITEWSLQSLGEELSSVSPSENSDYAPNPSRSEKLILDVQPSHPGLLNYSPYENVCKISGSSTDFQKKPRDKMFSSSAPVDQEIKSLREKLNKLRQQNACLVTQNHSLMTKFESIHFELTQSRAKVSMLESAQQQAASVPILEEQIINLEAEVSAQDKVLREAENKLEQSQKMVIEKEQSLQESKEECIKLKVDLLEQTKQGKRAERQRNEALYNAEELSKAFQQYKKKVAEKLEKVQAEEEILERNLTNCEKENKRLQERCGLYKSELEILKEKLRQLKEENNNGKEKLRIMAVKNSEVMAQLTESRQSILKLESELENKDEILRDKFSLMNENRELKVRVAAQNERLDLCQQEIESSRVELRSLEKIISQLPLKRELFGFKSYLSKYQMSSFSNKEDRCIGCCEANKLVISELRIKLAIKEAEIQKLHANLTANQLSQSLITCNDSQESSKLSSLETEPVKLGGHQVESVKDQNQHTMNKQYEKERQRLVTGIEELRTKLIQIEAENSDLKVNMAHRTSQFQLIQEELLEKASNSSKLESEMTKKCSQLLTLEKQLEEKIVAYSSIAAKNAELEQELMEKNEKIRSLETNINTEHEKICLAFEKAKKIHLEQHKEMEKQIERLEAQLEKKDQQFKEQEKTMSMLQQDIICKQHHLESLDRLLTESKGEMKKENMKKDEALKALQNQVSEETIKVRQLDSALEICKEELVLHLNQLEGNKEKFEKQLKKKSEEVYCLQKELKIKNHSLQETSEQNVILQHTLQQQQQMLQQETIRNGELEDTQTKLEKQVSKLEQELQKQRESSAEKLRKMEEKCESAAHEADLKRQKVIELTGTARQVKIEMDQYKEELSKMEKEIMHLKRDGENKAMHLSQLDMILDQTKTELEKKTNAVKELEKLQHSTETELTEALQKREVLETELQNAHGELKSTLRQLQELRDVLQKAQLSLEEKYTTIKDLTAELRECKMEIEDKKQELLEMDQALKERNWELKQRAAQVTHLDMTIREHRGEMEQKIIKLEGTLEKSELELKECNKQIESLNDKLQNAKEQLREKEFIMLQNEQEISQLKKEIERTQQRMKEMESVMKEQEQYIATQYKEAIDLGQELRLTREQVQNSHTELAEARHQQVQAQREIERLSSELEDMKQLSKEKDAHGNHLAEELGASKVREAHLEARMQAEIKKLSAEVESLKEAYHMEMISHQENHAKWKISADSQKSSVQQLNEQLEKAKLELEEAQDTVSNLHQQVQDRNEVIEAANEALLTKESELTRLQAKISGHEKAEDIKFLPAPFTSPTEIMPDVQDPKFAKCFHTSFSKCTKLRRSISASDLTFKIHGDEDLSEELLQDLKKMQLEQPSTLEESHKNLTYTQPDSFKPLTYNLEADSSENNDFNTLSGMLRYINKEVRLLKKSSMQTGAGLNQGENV
Chain of UniProt Q6ZNA5 (Q6ZNA5 whole entry): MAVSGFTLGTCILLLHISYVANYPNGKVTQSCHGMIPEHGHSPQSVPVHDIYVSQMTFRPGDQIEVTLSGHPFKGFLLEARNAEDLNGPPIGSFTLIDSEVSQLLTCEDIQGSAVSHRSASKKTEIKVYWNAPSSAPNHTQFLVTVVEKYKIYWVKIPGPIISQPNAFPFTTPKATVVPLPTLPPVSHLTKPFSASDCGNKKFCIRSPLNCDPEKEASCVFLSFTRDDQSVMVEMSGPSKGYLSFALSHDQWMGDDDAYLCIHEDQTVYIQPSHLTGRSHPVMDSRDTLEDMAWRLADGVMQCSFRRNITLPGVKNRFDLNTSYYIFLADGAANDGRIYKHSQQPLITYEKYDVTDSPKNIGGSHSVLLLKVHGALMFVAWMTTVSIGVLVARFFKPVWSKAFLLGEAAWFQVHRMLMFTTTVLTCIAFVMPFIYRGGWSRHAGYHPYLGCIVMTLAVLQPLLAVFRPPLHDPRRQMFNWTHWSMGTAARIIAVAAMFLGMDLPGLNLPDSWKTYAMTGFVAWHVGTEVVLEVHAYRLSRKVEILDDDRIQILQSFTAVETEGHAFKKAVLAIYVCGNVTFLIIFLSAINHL
Chain of UniProt P16615 (P16615 whole entry): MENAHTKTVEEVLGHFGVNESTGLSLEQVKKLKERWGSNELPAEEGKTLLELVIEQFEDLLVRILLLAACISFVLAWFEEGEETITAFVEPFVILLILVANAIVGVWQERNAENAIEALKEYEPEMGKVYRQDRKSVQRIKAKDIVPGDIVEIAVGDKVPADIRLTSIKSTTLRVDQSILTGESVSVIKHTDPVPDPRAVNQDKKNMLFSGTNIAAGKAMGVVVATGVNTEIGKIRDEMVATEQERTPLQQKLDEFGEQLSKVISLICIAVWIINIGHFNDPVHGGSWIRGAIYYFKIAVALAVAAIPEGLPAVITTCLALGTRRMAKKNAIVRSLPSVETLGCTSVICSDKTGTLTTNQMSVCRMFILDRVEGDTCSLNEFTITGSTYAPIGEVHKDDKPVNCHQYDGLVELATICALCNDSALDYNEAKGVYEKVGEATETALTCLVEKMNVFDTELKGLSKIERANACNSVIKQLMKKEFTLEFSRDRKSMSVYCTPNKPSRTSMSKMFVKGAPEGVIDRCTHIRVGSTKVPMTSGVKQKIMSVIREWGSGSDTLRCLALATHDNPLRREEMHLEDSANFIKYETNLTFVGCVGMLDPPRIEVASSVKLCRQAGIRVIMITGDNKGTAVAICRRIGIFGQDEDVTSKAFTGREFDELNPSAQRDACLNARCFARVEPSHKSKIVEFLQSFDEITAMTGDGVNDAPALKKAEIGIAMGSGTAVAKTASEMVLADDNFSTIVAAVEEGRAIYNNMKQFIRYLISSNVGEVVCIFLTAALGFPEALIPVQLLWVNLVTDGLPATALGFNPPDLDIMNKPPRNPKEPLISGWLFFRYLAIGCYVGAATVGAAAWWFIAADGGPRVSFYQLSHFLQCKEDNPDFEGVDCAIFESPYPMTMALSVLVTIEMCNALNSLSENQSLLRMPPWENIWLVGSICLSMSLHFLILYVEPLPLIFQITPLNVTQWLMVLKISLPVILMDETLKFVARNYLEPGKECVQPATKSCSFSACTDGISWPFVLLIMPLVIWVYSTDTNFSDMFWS
Chain of UniProt O75110 (O75110 whole entry): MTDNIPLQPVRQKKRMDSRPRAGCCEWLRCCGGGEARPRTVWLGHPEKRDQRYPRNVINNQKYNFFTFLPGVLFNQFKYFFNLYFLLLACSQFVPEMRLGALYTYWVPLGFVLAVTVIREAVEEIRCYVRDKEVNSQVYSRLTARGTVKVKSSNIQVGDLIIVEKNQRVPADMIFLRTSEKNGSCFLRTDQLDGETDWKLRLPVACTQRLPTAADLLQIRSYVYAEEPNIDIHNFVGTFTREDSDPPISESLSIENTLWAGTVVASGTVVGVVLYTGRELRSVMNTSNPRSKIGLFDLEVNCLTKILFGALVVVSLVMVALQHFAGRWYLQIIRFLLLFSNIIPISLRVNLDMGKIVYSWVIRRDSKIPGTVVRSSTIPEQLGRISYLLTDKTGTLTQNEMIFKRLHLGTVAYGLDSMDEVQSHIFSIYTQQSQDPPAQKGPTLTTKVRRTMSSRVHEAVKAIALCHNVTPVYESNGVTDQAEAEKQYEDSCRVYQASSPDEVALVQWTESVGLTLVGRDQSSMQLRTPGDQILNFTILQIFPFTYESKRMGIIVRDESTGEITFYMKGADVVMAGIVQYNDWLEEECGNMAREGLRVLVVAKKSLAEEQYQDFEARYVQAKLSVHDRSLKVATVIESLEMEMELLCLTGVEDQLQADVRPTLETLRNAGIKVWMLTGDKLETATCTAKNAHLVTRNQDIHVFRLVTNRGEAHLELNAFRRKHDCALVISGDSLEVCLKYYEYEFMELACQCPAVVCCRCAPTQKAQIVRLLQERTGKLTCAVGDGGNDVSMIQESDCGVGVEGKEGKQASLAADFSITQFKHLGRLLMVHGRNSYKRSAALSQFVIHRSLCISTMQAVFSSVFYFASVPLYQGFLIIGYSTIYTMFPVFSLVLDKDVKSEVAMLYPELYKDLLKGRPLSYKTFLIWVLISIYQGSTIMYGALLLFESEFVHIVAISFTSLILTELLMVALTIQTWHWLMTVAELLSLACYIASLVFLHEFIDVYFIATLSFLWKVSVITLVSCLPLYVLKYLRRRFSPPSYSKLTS
Chain of UniProt Q9NWX5 (Q9NWX5 whole entry): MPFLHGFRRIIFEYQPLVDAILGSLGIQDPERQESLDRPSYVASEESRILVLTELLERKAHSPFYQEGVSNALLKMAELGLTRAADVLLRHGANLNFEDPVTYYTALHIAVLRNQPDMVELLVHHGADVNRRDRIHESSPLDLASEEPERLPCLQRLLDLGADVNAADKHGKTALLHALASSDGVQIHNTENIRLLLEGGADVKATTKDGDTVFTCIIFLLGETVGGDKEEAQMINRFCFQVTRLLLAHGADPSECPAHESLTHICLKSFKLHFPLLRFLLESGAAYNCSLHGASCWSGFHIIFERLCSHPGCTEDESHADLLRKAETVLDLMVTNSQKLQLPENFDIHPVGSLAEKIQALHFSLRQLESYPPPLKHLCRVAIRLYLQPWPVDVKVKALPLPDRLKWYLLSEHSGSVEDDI
Chain of UniProt P28074 (P28074 whole entry): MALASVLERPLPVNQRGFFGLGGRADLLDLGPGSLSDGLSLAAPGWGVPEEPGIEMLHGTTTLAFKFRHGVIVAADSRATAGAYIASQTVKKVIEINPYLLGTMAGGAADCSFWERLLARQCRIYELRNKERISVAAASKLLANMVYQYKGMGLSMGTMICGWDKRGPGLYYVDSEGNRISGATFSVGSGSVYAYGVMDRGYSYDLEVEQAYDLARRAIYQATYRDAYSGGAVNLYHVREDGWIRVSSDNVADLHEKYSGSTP
Chain of UniProt Q9UI09 (Q9UI09 whole entry): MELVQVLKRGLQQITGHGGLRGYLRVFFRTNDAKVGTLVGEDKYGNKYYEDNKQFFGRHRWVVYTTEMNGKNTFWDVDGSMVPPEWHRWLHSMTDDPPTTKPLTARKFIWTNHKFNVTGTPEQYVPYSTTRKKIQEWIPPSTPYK

Target	thermal stability z-score (potassium arsenate)	thermal stability z-score (lipoamide; [1])	thermal stability z-score (lipoamide; arsenate co-treatment: none)
RABGGTA (UniProt Q92696)	-0.000862	-0.0918	-0.138
CRKL (UniProt P46109)	0.656	0.0621	0.384
SLC27A4 (UniProt Q6P1M0)	-0.197	-0.824	-0.358
RPN1 (UniProt P04843)	0.346	-1.47	-0.974
WASF2 (UniProt Q9Y6W5)	-0.206	-0.14	-0.155
TIMM44 (UniProt O43615)	-0.65	0.147	0.291
SETD3 (UniProt Q86TU7)	0.0633	-0.479	-0.251
IGF1R (UniProt P08069)	0.987	0.294	0.324
METTL2B (UniProt Q6P1Q9)	-0.0568	-0.019	-0.11
PI4K2B (UniProt Q8TCG2)	-0.451	-0.541	0.209
VCP (UniProt P55072)	-0.172	0.257	0.118
SUCLG1 (UniProt P53597)	0.206	0.0617	0.192
GIGYF2 (UniProt Q6Y7W6)	0.0976	-0.406	-0.109
ATP11B (UniProt Q9Y2G3)	-1.03	0.0989	-0.588
MED8 (UniProt Q96G25)	0.0962	0.954	0.843
IPO9 (UniProt Q96P70)	0.165	0.178	-0.179
TRIM33 (UniProt Q9UPN9)	-0.3	0.838	1.24
AP3M1 (UniProt Q9Y2T2)	0.418	0.0419	0.0205
KLHDC4 (UniProt Q8TBB5)	-0.251	-0.895	-0.0677
ATP9A (UniProt O75110)	-0.569	0.482	0.278
MIS12 (UniProt Q9H081)	0.00203	-0.0248	-0.061
PRKCA (UniProt P17252)	0.458	0.358	0.32
PSMB5 (UniProt P28074)	0.113	0.395	0.222
GNPDA2 (UniProt Q8TDQ7)	-0.0337	-0.212	-0.181

Target	thermal stability z-score (potassium arsenate)	thermal stability z-score (lipoamide; [1])	thermal stability z-score (lipoamide; arsenate co-treatment: none)
FER (UniProt P16591)	0.326	0.209	0.182
IFNGR1 (UniProt P15260)	-1.27	-0.824	-1.59
TMX4 (UniProt Q9H1E5)	0.19	-1.34	-1.22
ISY1 (UniProt Q9ULR0)	-0.872	0.997	0.693
POP5 (UniProt Q969H6)	-0.617	-0.5	-0.587
ALKBH2 (UniProt Q6NS38)	1.45	0.407	0.149
NCBP1 (UniProt Q09161)	-0.0646	0.353	0.393
ATP2A2 (UniProt P16615)	-0.0158	-1.16	-0.667
NDUFA5 (UniProt Q16718)	0.101	-0.0074	-0.146
LAS1L (UniProt Q9Y4W2)	-0.116	-0.0675	-0.132
PSMD11 (UniProt O00231)	-0.694	-0.641	-0.384
PPP1R10 (UniProt Q96QC0)	0.332	0.565	0.255
CHAF1A (UniProt Q13111)	-0.0415	0.0368	0.138
CCDC18 (UniProt Q5T9S5)	0.0398	0.0532	-0.042
CTNND1 (UniProt O60716)	-0.105	0.292	0.231
TRAF6 (UniProt Q9Y4K3)	-0.00689	-0.0771	-0.0851
NDUFA12 (UniProt Q9UI09)	0.611	-0.0618	0.06
PAK1IP1 (UniProt Q9NWT1)	-1.53	0.104	-0.651
MECP2 (UniProt P51608)	-0.147	-0.157	-0.207
POLR3G (UniProt O15318)	-0.356	-0.603	-0.505
GBF1 (UniProt Q92538)	0.452	-0.598	-0.0839
TAPBP (UniProt O15533)	0.709	-3.75	-2.54
ARHGEF2 (UniProt Q92974)	0.444	-0.182	0.0779
SPAG1 (UniProt Q07617)	-0.401	0.0825	0.0754

Target	thermal stability z-score (potassium arsenate)	thermal stability z-score (lipoamide; [1])	thermal stability z-score (lipoamide; arsenate co-treatment: none)
TMEM205 (UniProt Q6UW68)	1.79	1.01	0.394
FAM160B1 (UniProt Q5W0V3)	-1.49	-0.512	-0.179
MAP2K7 (UniProt O14733)	0.54	-0.121	0.341
FRRS1 (UniProt Q6ZNA5)	0.586	-0.316	-0.157
CBFB (UniProt Q13951)	0.352	-0.0158	-0.159
HDAC2 (UniProt Q92769)	-0.0176	4.76	4.53
SRSF10 (UniProt O75494)	2.99	1.16	0.452
LRCH3 (UniProt Q96II8)	-0.153	-0.0719	-0.00251
PPP1R8 (UniProt Q12972)	0.412	0.0226	-0.142
DAP (UniProt P51397)	-0.0556	1.03	0.89
ZMIZ2 (UniProt Q8NF64)	-0.482	-0.177	-0.321
BIRC2 (UniProt Q13490)	-0.483	-0.731	-0.56
SNRPC (UniProt P09234)	0.905	0.137	0.0659
HADHB (UniProt P55084)	-0.422	-0.0335	0.077
GOLGA4 (UniProt Q13439)	0.774	-0.45	0.00058
OSBPL8 (UniProt Q9BZF1)	-0.00618	-1.47	-1.21
ATRIP (UniProt Q8WXE1)	-0.137	0.275	-0.148
SEC22A (UniProt Q96IW7)	0.684	0.0383	-0.0317
ASB6 (UniProt Q9NWX5)	0.506	0.441	-0.288
NSL1 (UniProt Q96IY1)	-0.0597	0.254	-0.0663
PELO (UniProt Q9BRX2)	-0.0213	-0.811	-0.364
CTSB (UniProt P07858)	-0.676	-0.289	-0.315
FPGS (UniProt Q05932)	0.864	0.0221	-0.181
